{"source": "paper PMC6294363", "about": "“Structural and functional insight into serine hydroxymethyltransferase from Helicobacter pylori” (PLoS ONE, 2018)", "molecules": {"B1": {"name": "Serine hydroxymethyltransferase from Helicobacter pylori 26695 (HP0183 gene product) (enzyme, Helicobacter pylori strain 26695, UniProt P56089 1-416, looked up)", "chain": "MAYFLEQTDSEIFELIFEEYKRQNEHLEMIASENYTFASVMEAMGSVLTNKYAEGYPNKRYYGGCEVVDKIESLAIERAKKLFNCQFANVQAHSGSQANNAVYHALLKPYDKILGMDLSCGGHLTHGAKVSLTGKHYQSFSYGVNLDGYIDYEEALKIAQSVKPEIIVCGFSAYPREIDFKKFREIADEVGALLLGDIAHVAGLVVTGEHAHPFPHCHVVSSTTHKTLRGPRGGIILTNDEEIAAKIDKAIFPGTQGGPLMHVIAAKAVGFKENLKPEFKAYAQLVKSNMQVLAKALKEKNHKLVSGGTSNHLLLMDFLDKPYSGKDADIALGNAGITVNKNTIPGETRSPFVTSGIRIGSAALSARGMGAKEFEIIGNKISDILNDINNVSLQLHVKEELKAMVNQFPVYHQPIF", "notes": "Serine hydroxymethyltransferase (glyA, ORF HP0183) of Helicobacter pylori strain 26695; gene amplified with primers SA36/SA37 (from the ATG to the end of the ORF) and inserted into pQE60; residues 3-416 modelled in the crystal; Homodimer by crystal structure and dynamic light scattering; Predicted mass per monomer 46,776 Da; also called HpSHMT; SHMT; source: E. coli SG 13009 (pREP4), pQE60, …"}}, "key": {"[1]": {"molecular_target": "T1, HpSHMT (H. pylori SHMT; HP0183 gene product) (Helicobacter pylori, UniProt P56089)", "T1 construct": "gene glyA; full-length, C-terminal 6xHis tag (pQE60), expressed in E. coli SG 13009; predicted monomer 46,776 Da; homodimer; purified largely as apoprotein", "T1 sequence (P56089 1-416)": "B1 chain", "test": "coupled alcohol dehydrogenase assay, NADH oxidation at […] nm", "assay_type": "biochemical", "details": "20 uM SHMT, 250 uM PLP, 250 uM NADH, 50 mM phosphate pH 8.0, room temperature; folate-independent retroaldol cleavage"}, "[2]": {"molecular_target": "T1, HpSHMT (H. pylori SHMT; HP0183 gene product)", "test": "absorbance at […] nm of enzyme-PLP-glycine-folate ternary complex, MTHF titration", "assay_type": "binding", "details": "read-out: apparent KFol"}, "[3]": {"molecular_target": "T1, HpSHMT (H. pylori SHMT; HP0183 gene product)", "test": "absorbance at […] nm of enzyme-PLP-glycine-folate ternary complex", "assay_type": "binding", "details": "fixed 5 mM glycine with 250 uM PLP and 0-2 mM MTHF, pH 8.0, room temperature"}, "[4]": {"molecular_target": "the molecule itself", "test": "crystal structure; HpSHMT apoprotein, hanging drop vapour diffusion, 20% PEG 3350, 0.2 M sodium acetate, room temperature; space group P212121, two monomers in the asymmetric unit; 2.8 Å"}}, "data": [{"molecule": "C[C@H](O)[C@H](N)C(=O)O", "note": "[L-allothreonine]", "values": [{"measurement": "coupled alcohol dehydrogenase assay, NADH oxidation at 340 nm", "setting": "[1]", "result": "it is able to transform L-allothreonine to acetaldehyde, thus confirming its activity as SHMT"}]}, {"molecule": "Nc1nc2c(c(=O)[nH]1)N1CN(c3ccc(C(=O)N[C@@H](CCC(=O)O)C(=O)O)cc3)C[C@H]1CN2", "note": "[MTHF]", "values": [{"measurement": "Kd", "setting": "[2]", "result": 300, "unit": "µM"}]}, {"molecule": "NCC(=O)O", "note": "[glycine]", "values": [{"measurement": "absorbance at 502 nm of enzyme-PLP-glycine-folate ternary complex", "setting": "[3]", "result": "corresponding to the intermediate ternary enzyme-PLP-glycine-folate complex"}]}, {"molecule": "B1", "values": [{"measurement": "stoichiometry N", "setting": "[4]", "result": 2}]}]}
